Results: the supplement of paper PMC11150407

Tests used:
Test in all cases: area under dose-response viability curve (log dose) (AUC (arbitrary)); higher = less sensitive
Conditions in all cases: 72 h
[1] = compound: CC(C)[C@H](C(=O)Nc1ccc(C(=O)NO)cc1)c1ccccc1 [AR-42]
Protocol: (§1)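 Primary AML blasts from patients (3q26 EVI1-high and other AML) were treated for 72 h with a dose series of each drug. Viability was measured with an ATP-based CellTiter-Glo assay. The area under the curve of the log-transformed dose-response data was computed in GraphPad Prism; a lower AUC means greater sensitivity.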

[2] = compound: CC[C@]1(O)C[C@H]2CN(CCc3c([nH]c4ccccc34)[C@@](C(=O)OC)(c3cc4c(cc3OC)N(C=O)[C@H]3[C@@](O)(C(=O)OC)[C@H](OC(C)=O)[C@]5(CC)C=CCN6CC[C@]43[C@@H]65)C2)C1 [Vincristine]
Protocol: as §1

[3] = compound: CN(Cc1cnc2nc(N)nc(N)c2n1)c1ccc(C(=O)N[C@@H](CCC(=O)O)C(=O)O)cc1 [Methotrexate]
Protocol: as §1

[4] = compound: COc1cccc2c1C(=O)c1c(O)c3c(c(O)c1C2=O)C[C@@](O)(C(C)=O)C[C@@H]3O[C@H]1C[C@H](N)[C@H](O)[C@H](C)O1 [Daunorubicine]
Protocol: as §1

[5] = compound: Nc1ccccc1NC(=O)c1ccc(CNC(=O)OCc2cccnc2)cc1 [Entinostat]
Protocol: as §1

[6] = compound: O=C(/C=C/c1cccc(S(=O)(=O)Nc2ccccc2)c1)NO [Belinostat]
Protocol: as §1

Test System	area under dose-response viability curve [1]	area under dose-response viability curve [2]	area under dose-response viability curve [3]	area under dose-response viability curve [4]	area under dose-response viability curve [5]	area under dose-response viability curve [6]
PR#007 (EVI1 status: EVI1High)	163	186	245	110	172	157
PR#010 (EVI1 status: EVI1Low)	121	172	256	93.9	147	177
PR#018 (EVI1 status: EVI1Low)	184	204	236	101	211	189
PR#026 (EVI1 status: EVI1Low)	155	90.2	241	85.1	205	189
PR#028 (EVI1 status: EVI1Low)	164	116	252	142	198	182
PR#038 (EVI1 status: EVI1Low)	141	187	209	86	143	167
PR#008 (EVI1 status: EVI1High)	55.7	116	195	15	82.3	81.8
PR#030 (EVI1 status: EVI1Low)	158	147	233	88.5	237	180
PR#034 (EVI1 status: EVI1Low)	142	202	233	192	195	160
PR#027 (EVI1 status: EVI1Low)	158	186	262	63.1	197	164
PR#002 (EVI1 status: EVI1High)	132	179	232	110	145	179
PR#039 (EVI1 status: EVI1Low)	96	95.7	201	24.5	125	124
PR#035 (EVI1 status: EVI1Low)	145	119	198	64.4	175	168
PR#021 (EVI1 status: EVI1Low)	189	195	241	122	215	202
PR#037 (EVI1 status: EVI1Low)	126	113	213	83.7	106	127
PR#016 (EVI1 status: EVI1Low)	148	152	270	104	159	156

Test System	area under dose-response viability curve [1]	area under dose-response viability curve [2]	area under dose-response viability curve [3]	area under dose-response viability curve [4]	area under dose-response viability curve [5]	area under dose-response viability curve [6]
PR#020 (EVI1 status: EVI1Low)	130	128	248	61.9	182	246
PR#013 (EVI1 status: EVI1Low)	130	193	233	68.1	153	169
PR#033 (EVI1 status: EVI1Low)	154	147	226	36.2	183	178
PR#005 (EVI1 status: EVI1High)	156	156	198	87.5	107	138
PR#036 (EVI1 status: EVI1Low)	130	123	251	48.2	172	150
PR#019 (EVI1 status: EVI1Low)	208	203	245	128	232	225
PR#032 (EVI1 status: EVI1Low)	170	92.1	258	58	144	148
PR#022 (EVI1 status: EVI1Low)	140	175	244	59.5	185	161
PR#029 (EVI1 status: EVI1Low)	167	46.3	229	25.4	213	221
PR#015 (EVI1 status: EVI1Low)	149	128	248	37	145	227
PR#017 (EVI1 status: EVI1Low)	163	204	237	89.5	191	160
PR#023 (EVI1 status: EVI1High)	139	140	240	138	162	165
PR#031 (EVI1 status: EVI1Low)	189	129	233	34.9	229	204
PR#006 (EVI1 status: EVI1High)	120	136	248	57.7	120	138
PR#024 (EVI1 status: EVI1High)	106	97	249	66.1	167	122
PR#011 (EVI1 status: EVI1Low)	188	196	226	132	200	209
